# Test results: patent US20210260064A1, “POZIOTINIB COMBINATIONS WITH AN ANTI-HER1, HER2 OR HER4 ANTIBODY AND METHODS OF USE THEREOF” (Spectrum Pharmaceuticals, Inc., priority 2018, published 2021)
# Read-outs that look alike come from different tables or passages of the source.
# How the values were obtained:
# [1] = system: BT-474 cells; assay: Combination of poziotinib with other anticancer drugs, synergy on proliferation; type: cell-based; settings: HER2-overexpressed, ER-negative breast cancer cells
# [2] = system: MBA-MB-453 cells; assay: as above; type: cell-based; settings: HER2 overexpressed trastuzumab resistant breast cancer cells; concentrations equal to or lower than the GI50 of poziotinib alone
# [3] = system: HER2-positive GC; settings: in combination with chemotherapy; cited from earlier work
# [4] = system: HER2-positive breast cancer; settings: in combination with docetaxel plus trastuzumab; cited from earlier work
# [5] = system: HER2-amplified GC cells; settings: in vitro; cited from earlier work
# [6] = system: patients with HER2-positive GC; assay: Phase I/II study of poziotinib combined with paclitaxel and trastuzumab: safety (TEAEs, DLT, MTD, dose adjustments); type: in vivo; settings: for MTD of poziotinib: combined with paclitaxel and trastuzumab
# Experimental: (§1) A prospective phase I/II study was conducted at 11 treatment centers in Korea. Patients with HER2-positive GC who previously had received one or more lines of chemotherapy were enrolled. Enrolled patients received oral poziotinib (8 mg or 12 mg) once daily for 14 days, followed by 7 days off.
# (§2) Patients. […] Key exclusion criteria included: a history of hypersensitivity to drugs containing Cremophor® EL and trastuzumab; previous exposure to taxanes, and symptomatic central nervous system metastasis.
# (§3) Treatment Procedures. […] DLTs were evaluated in 6 patients at each poziotinib dose level.
# (§4) Safety Analyses and Efficacy. Adverse events (AEs) and TEAEs were evaluated using National Cancer Institute-Common Terminology Criteria for Adverse Events (version 4.03). DLTs were defined as grade […] non-hematologic toxicities (except for alopecia); grade ≥3 diarrhea, nausea and vomiting, despite maximal dosage of anti-diarrhea and/or anti-emetic medication (as applicable); and grade 4 neutropenia sustained for ≥7 days, grade 3-4 neutropenia with fever or infection, grade 4 thrombocytopenia and grade 3 thrombocytopenia sustained for 7 days, or with accompanying bleeding, or requiring transfusion. Left ventricular ejection fraction (LVEF) assessment was performed at baseline, on day 1 of the first 3 cycles and every 3 cycles thereafter. All patients who received at least one dose of poziotinib were included in the safety analysis. Tumor response was evaluated by CT or MRI of the thorax, abdomen and pelvis every 6 weeks using RECIST version 1.1, according to investigator assessment.
# (§5) Statistical Analysis. The primary objective of phase I was to assess the safety and tolerability of poziotinib and to determine the MTD of poziotinib when combined with paclitaxel and trastuzumab. The primary objective of the phase II part was to assess the objective response rate (ORR) of poziotinib combined with paclitaxel and trastuzumab. The secondary objectives were to evaluate the safety and tolerability, progression-free survival (PFS), time to tumor progression (TTP) and duration of overall response (DOR).
# [7] = cited from earlier work; for ORR / median PFS: monotherapy
# [8] = system: patients with HER2-positive GC; assay: Phase I/II study of poziotinib combined with paclitaxel and trastuzumab: efficacy (tumor response RECIST 1.1, survival); type: in vivo, human
# Experimental: as §1, §2, §3, §4, §5
# For phase II, it was hypothesized that an ORR <5% would be ineffective and an ORR >20% would be considered to be clinically significant. Sample size was calculated using Simon's 2-stage minimax design, with 80% power and a significance level of 5%. Of the total 27 target subjects, 13 were required in the 1st stage. If the tumor response was 0 out of 13 patients, the study was planned to be terminated early. However, if at least 1 response was observed, an additional 14 patients would be enrolled in the study.
# [9] = system: NSCLC patients having EGFR activating mutations; settings: in vivo; cited from earlier work
# [10] = system: MDA-MB-361 cells; assay: Combination of poziotinib with other anticancer drugs, synergy on proliferation; type: cell-based; settings: HER2-overexpressed, ER-positive, trastuzumab resistant
# [11] = system: SK-BR-3 cells; assay: as above; type: cell-based; settings: HER2-overexpressed and ER-negative
# [12] = system: MDA-MB-468 cells; assay: as above; type: cell-based; settings: HER2 negative, ER-negative, HER1-overexpressed triple negative breast cancer cells
# [13] = system: MCF-7 cells; assay: as above; type: cell-based; settings: not HER1 and HER2-overexpressed and ER-positive
# [14] = system: HER2-positive GC; settings: monotherapy; cited from earlier work
# [15] = system: patients with HER2-positive GC; settings: patients who failed prior fluoropyrimidine and platinum, cited from earlier work
# [16] = All patients, Phase I 12 mg (5)
# [17] = All patients, Phase I Total (12)
# [18] = All patients, Phase II RD: 8 mg (32)
# [19] = All patients, Total population Total (44)
# [20] = Trastuzumab-naïve patients, Phase I 8 mg (n 3)
# [21] = Trastuzumab-naïve patients, Phase I Total (n 3)
# [22] = Trastuzumab-naïve patients, Phase II RD: 8 mg (n 8)
# [23] = Trastuzumab-naïve patients, Total population (n 11)
# [24] = Trastuzumab-pretreated Patients, Phase I 8 mg (n 4)
# [25] = Trastuzumab-pretreated Patients, Phase I 12 mg (n 5)
# [26] = Trastuzumab-pretreated Patients, Phase I Total (n 9)
# [27] = Trastuzumab-pretreated Patients, Phase II RD: 8 mg (n 24)
# [28] = Trastuzumab-pretreated Patients, Total population (n 33)
compound,measurement,setting,value
CC(=O)O[C@H]1C(=O)[C@@]2(C)[C@H]([C@H](OC(=O)c3ccccc3)[C@]3(O)C[C@H](OC(=O)[C@H](O)[C@@H](NC(=O)c4ccccc4)c4ccccc4)C(C)=C1C3(C)C)[C@]1(OC(C)=O)CO[C@@H]1C[C@@H]2O [paclitaxel],synergistic effect when combined with poziotinib,[1],high synergistic effect
same,synergistic effect when combined with poziotinib,[2],excellent synergistic effect
pertuzumab: anti-HER2 antibody used for dual blockade with trastuzumab,Effect on OS,[3],did not extend OS
same,Effect on OS,[4],significantly increased OS
CS(=O)(=O)CCNCc1ccc(-c2ccc3ncnc(Nc4ccc(OCc5cccc(F)c5)c(Cl)c4)c3c2)o1 [lapatinib],anti-tumor activity of dual blockade with trastuzumab,[5],highly synergistic anti-tumor activity
"C=CC(=O)N1CCC(Oc2cc3c(Nc4ccc(Cl)c(Cl)c4F)ncnc3cc2OC)CC1 [poziotinib, 1-[4-[4-(3,4-dichloro-2-fluorophenylaminino)-7-methoxyquinazolin-6-yloxy]-piperidin-1-yl]prop-2-en-1-one]",TEAEs by Maximum Severity: Grade 5 (death),[6]; Phase I 12 mg (n = 5),0 n
same,TEAEs leading to death,[6]; Phase I 12 mg (n = 5),0 n
same,MTD of poziotinib,[6]; Phase I part of the current study,8 mg/day
same,MTD of poziotinib,"[6]; Phase I, once daily 14 days, 7 days off",8 mg
same,AE related to poziotinib: Fatigue,"[6]; human, in vivo",0 n
same,AE related to poziotinib: Myalgia,"[6]; human, in vivo",0 n
same,AE related to poziotinib: Vomiting,"[6]; human, in vivo",0 n
same,Left ventricular systolic dysfunction (LVSD),"[6]; human, in vivo",no grade 3 or 4 left ventricular systolic dysfunction
same,TEAE ≥Grade 3: Abdominal pain,"[6]; human, in vivo",0 n
same,TEAE ≥Grade 3: Mucosal inflammation,"[6]; human, in vivo",0 n
same,TEAE ≥Grade 3: Pruritus,"[6]; human, in vivo",0 n
same,TEAE ≥Grade 3: Rash,"[6]; human, in vivo",0 n
same,TEAE ≥Grade 3: Stomatitis,"[6]; human, in vivo",0 n
same,TEAEs by Maximum Severity: Grade 1 (mild),"[6]; human, in vivo",0 n
same,MTD of poziotinib as monotherapy,[7]; continuous dosing,18 mg/day
same,MTD of poziotinib as monotherapy,[7]; intermittent dosing (14 days on and 7 days off),24 mg/day
same,ORR,[7]; continuous dosing schedule,21%
same,median PFS,[7]; continuous dosing schedule,9.0 weeks
same,ORR,[7]; intermittent dosing schedule,16%
same,median PFS,[7]; intermittent dosing schedule,12.0 weeks
same,"Overall survival, Median","[8]; All patients, Phase I 8 mg (7)",30.6 weeks
same,"Progression free survival, Median","[8]; All patients, Phase I 8 mg (7)",17.1 weeks
same,"Time to tumor progression, Median","[8]; All patients, Phase I 8 mg (7)",18.2 weeks
same,"Overall survival, Median",[8]; [16],19.9 weeks
same,"Progression free survival, Median",[8]; [16],17.7 weeks
same,"Time to tumor progression, Median",[8]; [16],17.7 weeks
same,"Overall survival, Median",[8]; [17],30.6 weeks
same,"Progression free survival, Median",[8]; [17],"17,7 weeks"
same,"Time to tumor progression, Median",[8]; [17],17.9 weeks
same,"Overall survival, Median",[8]; [18],29.5 weeks
same,"Progression free survival, Median",[8]; [18],13.0 weeks
same,"Time to tumor progression, Median",[8]; [18],15.0 weeks
same,"Overall survival, Median",[8]; [19],29.5 weeks
same,"Progression free survival, Median",[8]; [19],16.0 weeks
same,"Time to tumor progression, Median",[8]; [19],17.1 weeks
same,Best overall response: CR,[8]; Phase I 8 mg (n = 7),0 n
same,"Duration of overall response, Median","[8]; Phase I 8 mg, 2 patients",14.5 weeks
same,Best overall response: CR,[8]; Phase I 12 mg (n = 5),0 n
same,Best overall response: unknown,[8]; Phase I 12 mg (n = 5),0 n
same,"Duration of overall response, Median","[8]; Phase I 12 mg, 2 patients",20.4 weeks
same,"Duration of overall response, Median",[8]; Phase I Total,15.0 weeks
same,Best overall response: CR,[8]; Phase I Total (n = 12),0 n
same,Patients with tumor shrinkage,[8]; Phase II,Twenty
same,"Duration of overall response, Median","[8]; Phase II RD: 8 mg, 7 patients",26.8 weeks
same,"Overall survival, Median",[8]; [20],194.9 weeks
same,"Progression free survival, Median",[8]; [20],30.6 weeks
same,"Overall survival, Median",[8]; [21],194.9 weeks
same,"Progression free survival, Median",[8]; [21],30.6 weeks
same,Disease control rate,[8]; [22],5 n
same,"Overall survival, Median",[8]; [22],42.6 weeks
same,"Progression free survival, Median",[8]; [22],18.7 weeks
same,"Overall survival, Median",[8]; [23],59.2 weeks
same,"Progression free survival, Median",[8]; [23],20.7 weeks
same,"Overall survival, Median",[8]; [24],30.6 weeks
same,"Progression free survival, Median",[8]; [24],15.5 weeks
same,"Overall survival, Median",[8]; [25],19.9 weeks
same,"Progression free survival, Median",[8]; [25],17.7 weeks
same,"Overall survival, Median",[8]; [26],21.1 weeks
same,"Progression free survival, Median",[8]; [26],17.7 weeks
same,"Overall survival, Median",[8]; [27],29.5 weeks
same,"Progression free survival, Median",[8]; [27],13.0 weeks
same,"Overall survival, Median",[8]; [28],29.5 weeks
same,"Progression free survival, Median",[8]; [28],15.0 weeks
"O=c1[nH]cc(F)c(=O)[nH]1 [5-FU, 5-fluorouracil]",synergistic effect when combined with poziotinib,[1],high synergistic effect
same,synergistic effect when combined with poziotinib,[2],excellent synergistic effect
C#Cc1cccc(Nc2ncnc3cc(OCCOC)c(OCCOC)cc23)c1 [erlotinib],Patients observed to be resistant due to the EGFR T790M mutation,[9],about 60%
CCC1=C[C@@H]2CN(C1)Cc1c([nH]c3ccccc13)[C@@](C(=O)OC)(c1cc3c(cc1OC)N(C)[C@H]1[C@@](O)(C(=O)OC)[C@H](OC(C)=O)[C@]4(CC)C=CCN5CC[C@]31[C@@H]54)C2 [vinorelbine],synergistic effect when combined with poziotinib,[10],synergistic effect at some concentrations
same,synergistic effect when combined with poziotinib,[1],synergistic effect was not observed
same,synergistic effect when combined with poziotinib,[11],sufficient effect was observed to indicate synergy
same,synergistic effect when combined with poziotinib,[12],synergistic effect was observed
same,synergistic effect when combined with poziotinib,[13],synergy at every concentration
COc1cc2ncnc(Nc3ccc(F)c(Cl)c3)c2cc1NC(=O)/C=C/CN1CCCCC1 [dacomitinib],ORR,[14],7.4%
same,median PFS,[14],2.1 months
N.N.[Cl][Pt][Cl] [cisplatin],synergistic effect when combined with poziotinib,[1],high synergistic effect
same,synergistic effect when combined with poziotinib,[2],excellent synergistic effect
trastuzumab emtansine,ORR,[15],20.6%
same,Efficacy compared with paclitaxel,[15]; phase III,not superior to paclitaxel
